Holding throughout (assay type): cell-based
For one assay, the system named is SnoN. Kind of assay: Western analysis of SnoN protein levels. Further details: SnoN basal protein levels: dose or concentration left out as unconfirmed. The method, then:
(§1) Proteins were resolved on an 8%, 12%, or 15% SDS-PAGE gel (as appropriate) and electrophoretically transferred to polyvinyldifluoride (PVDF) membranes. After blocking with 5% (w/v) milk in TBST (Tris-Buffered Saline containing 0.1% Tween-20) for one hour at room temperature, membranes were incubated with primary antibodies (at appropriate dilution) overnight at 4° C., followed by extensive washing and incubation for 1 hour with the appropriate horseradish peroxidase-conjugated secondary antibodies (BioRad, Hercules, Calif.). Blots were washed extensively. A rabbit polyclonal EVI1 antibody was obtained (1:3000 dilution, St. Jude's Children's Hospital, Memphis, Tenn.). SnoN rabbit polyclonal (1:1000 dilution), PML, and p21 SMURF2 rabbit polyclonal (1:500 dilution), MRP1 mouse monoclonal (1:500 dilution) and GAPDH mouse monoclonal (1:250 dilution) antibodies were obtained from Santa Cruz Biotechnology (Santa Cruz, Calif.). TGFβRII rabbit polyclonal (1:1000 dilution) antibody was obtained from Strategic Diagnostics (Newark, Del.). Smad2/3 rabbit polyclonal (1:1000 dilution), Beclin-1 rabbit polyclonal (1:1000 dilution), AKT rabbit polyclonal (1:1000 dilution), TAK1 rabbit polyclonal (1:1000 dilution), PARP rabbit polyclonal (1:1000 dilution), Beclin-1 rabbit polyclonal (1:1000 dilution), caspase-3 rabbit polyclonal (1:1000) which detects the pro-caspase form, and ATG5 rabbit polyclonal (1:1000 dilution), LC3-II rabbit polyclonal (1:1000 dilution) antibodies were obtained from Cell Signaling Technology (Danvers, Mass.). The HSP27 mouse monoclonal (1:1000 dilution) antibody was obtained from Stressgen (Ann Arbor, Mich.). Blots were developed using chemiluminescence substrates (Amersham Piscataway, N.J. or BioRad, Hercules, Calif.). Monoclonal PAI-1 antibody was obtained from BD Pharmingen. PSMAD2, total SMAD2/3, p-ERK, p-AKT, and total AKT antibodies were obtained from Cell Signaling Technology. A monoclonal antibody against Arkadia was obtained from Abnova (Taiwan).
(§2) Densitometric analysis was performed using the HP Scanjet 5590 and the Image J program (Image Processing and Analysis in Java, NIH Image Software). Bands were selected and the intensity values were normalized to those for GAPDH. The values are presented as fold-changes relative to control siRNA treated cells.
The clinical inhibitors As2O3, geldanamycin (17-AAG) (dissolved in dimethylsulfoxide [DMSO]), and MG132 (dissolved in DMSO) were obtained from Sigma-Aldrich (St. Louis, Mo.), Fisher Scientific (Pittsburgh, Pa.), and Alexis Biochemicals (Farmingdale, N.Y.), respectively. N-acetyl-L-cysteine (NAC; dissolved in media) and Bortezomib (PS-341; dissolved in DMSO) were obtained from Fisher Scientific. 3-Methyladenine (3-MA; dissolved in media) was obtained from MP Biomedicals (Solon, Ohio). Tiron (4,5-Dihydroxy-1,3-benzenedisulfonic acid, dissolved in media) was obtained from Fisher Scientific. zVAD-fmk (dissolved in DMSO) and bafilomycin A (dissolved in DMSO) was obtained from Axxora LLC (San Diego, Calif.). Bovine catalase was obtained from Sigma-Aldrich. HBED and Mn TBAP was obtained from ENZO Life Sciences (Farmingdale, N.Y.). Ovarian cells were plated in 6-well plates at 250,000 cells per well and grown in complete medium. […] For control cells, DMSO (a final concentration of <0.5%) was added to compare appropriately to drugs dissolved in DMSO. After the appropriate incubation time (6 or 18 hours), cell lysates were collected, protein quantified, and SDS-PAGE/western analysis was performed. In addition, for selected studies, RNA was isolated, quantified, and used for qPCR analysis.

Assay [1] relates to EVI1 forms (MDS1/EVI1, EVI1, EVI1^Del190-515). Conditions: combination with As2O3; HEY, OVCA429. The method, then:
as §1, §2
(§3) The clinical inhibitors As2O3, geldanamycin (17-AAG) (dissolved in dimethylsulfoxide [DMSO]), and MG132 (dissolved in DMSO) were obtained from Sigma-Aldrich (St. Louis, Mo.), Fisher Scientific (Pittsburgh, Pa.), and Alexis Biochemicals (Farmingdale, N.Y.), respectively. N-acetyl-L-cysteine (NAC; dissolved in media) and Bortezomib (PS-341; dissolved in DMSO) were obtained from Fisher Scientific. 3-Methyladenine (3-MA; dissolved in media) was obtained from MP Biomedicals (Solon, Ohio). Tiron (4,5-Dihydroxy-1,3-benzenedisulfonic acid, dissolved in media) was obtained from Fisher Scientific. zVAD-fmk (dissolved in DMSO) and bafilomycin A (dissolved in DMSO) was obtained from Axxora LLC (San Diego, Calif.). Bovine catalase was obtained from Sigma-Aldrich. HBED and Mn TBAP was obtained from ENZO Life Sciences (Farmingdale, N.Y.). Ovarian cells were plated in 6-well plates at 250,000 cells per well and grown in complete medium. The following day, the cells were treated with 5 μM MG132, As2O3 (between 2-50 μM), 17-AAG (between 2-50 μM), NAC (Fisher Scientific, between 25 μM to 1 mM), Tiron (between 25 μM to 1 mM), 3-MA (0.1 mM to 10 mM), or zVAD-fmk (25 μM to 100 μM). For control cells, DMSO (a final concentration of <0.5%) was added to compare appropriately to drugs dissolved in DMSO. After the appropriate incubation time (6 or 18 hours), cell lysates were collected, protein quantified, and SDS-PAGE/western analysis was performed. In addition, for selected studies, RNA was isolated, quantified, and used for qPCR analysis.

The subject of assay [2] is TAK1, SMAD2/3, TGFβRII, AKT, phospho-SMAD2. Kind of assay: Western analysis of other TGFβ signaling mediators. As to the method: as §1, §2, §3
For the next assay, the system named is EVI1 and TGFβRII RNA. The assay is described as follows: qPCR of EVI1 and TGFβRII RNA levels. Conditions: 5 μM MG132, 18 hours. The method, then:
RNA was isolated using the RNeasy Mini Kit (Qiagen, Valencia, Calif.) from normal, benign, stage I-IV ovarian patient samples and quantitative PCR was performed. A one-step RT-PCR Taqman master mix from Applied Biosystems (Foster City, Calif.) and primers for genes in the 3q26.2 amplicon were obtained using Genebank sequences as well as from Assays on Demand (Hs00180524_m1 (SnoN/SkiL)), with the following primers and probe sets.
EVI1 Exon III—(detects both EVI1 and MDS1/EVI1):
Primers/probe sequences for SnoN (Hs00180524_m1), TGFβRII (Hs00234253_m1), and LC3 (Hs00261291_m1) were obtained from Applied Biosystems (Assays by Design).
mRNA levels were determined using the One-Step-Plus Applied Biosystems Detection System or ABI PRISM 7700 Sequence Detection System using β-actin as a reference. […] 95° C. for 15 s followed by 60° C. for 1 min Using the correlative method, RNA-fold change in expression was calculated as Ct of gene—Ct of β-actin to generate ΔCt from which ΔCt of the normal sample was subtracted. […]
The clinical inhibitors As2O3, geldanamycin (17-AAG) (dissolved in dimethylsulfoxide [DMSO]), and MG132 (dissolved in DMSO) were obtained from Sigma-Aldrich (St. Louis, Mo.), Fisher Scientific (Pittsburgh, Pa.), and Alexis Biochemicals (Farmingdale, N.Y.), respectively. […] In addition, for selected studies, RNA was isolated, quantified, and used for qPCR analysis.

Peptide text beside a SMILES is read from it. * marks the point of attachment. Cbz = O=C(OCc1ccccc1)*

Take `CC(C)C[C@@H](C=O)NC(=O)[C@H](CC(C)C)NC(=O)[C@H](CC(C)C)NC(=O)OCc1ccccc1` [MG132] (Cbz-Leu-Leu-Leu-aldehyde): in the assay with SnoN (MG132, HEY and OVCA429, threshold between 3 and 6 h), the “SnoN basal protein levels” value is recorded as “marked increase”. In addition, in the assay on SnoN (combination with As2O3), the “SnoN protein in drug-treated cells with added proteosome inhibitor” value is on record as “further increased”. For the same compound, the “EVI1 protein in As2O3-treated cells with added proteosome inhibitor” value in assay [1] is given as “recovered”. Also, the “AKT, SMAD2/3, and TGFβRII protein levels” value in assay [2] (MG132 at 18 hours) is reported as “significantly decreased”. The “TGFβRII protein in drug-treated cells with added proteosome inhibitor” value in assay [2] (combination with As2O3 (MG132: 6 hour drug treatment)) was “recovered”. The “EVI1 and TGFβRII RNA levels” value in the assay on EVI1 and TGFβRII RNA is “markedly reduce”.

The values above are taken from patent US8211646B1, “Methods of treating ovarian cancer by modulating SnoN” (University of South Florida, priority 2008, dated 2012).
